In PubChem BioAssay (NCI) one finds GI50 and TGI data, which are given here for 17 molecules.

Assay in all cases: NCI-60 cell line screen, 48 h
Assay [1] concerns MCF7 breast.
Assay [2] concerns T-47D breast.
Assay [3] has as its system HS 578T breast.
For assay [4], the system named is PC-3 prostate.
Assay [5] concerns MDA-MB-435.

Molecules are shown by their SMILES.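 Assay format: 96-well plates, 48-hour exposure. GI50 = concentration required for 50% inhibition of growth. Definition used: TGI = concentration required for complete inhibition of growth.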

For `O=c1c2ccccc2oc2ccc(OCCCCCCN3CCCCCC3)cc12`, the GI50 in assay [1] was 1.91 µM; in assay [2] it was 2.26 µM; in assay [3], 7.5 µM; in assay [4], 3.17 µM; in assay [5], 2.53 µM. The TGI was found to be 5.53 µM in assay [1]; 8.52 µM in assay [2]; 36.7 µM in assay [3]; 13.2 µM in assay [4]; 8.75 µM in assay [5].
In the case of `CCOP(=O)(Nc1ccc2oc(=O)c3ccccc3c2c1)OCC`, the TGI in assay [1], in assay [2], in assay [3], in assay [4] and in assay [5] was more than 100 µM throughout.
For the molecule `O=C1CN(/N=C/c2ccc(-c3ccc(F)cc3)o2)C(=O)N1`, the TGI in assay [1] is more than 100 µM; in assay [2] it was more than 100 µM; in assay [3], more than 100 µM; in assay [4], more than 100 µM; in assay [5], 41.1 µM.
Turning to `O=C(Cc1csc2nc(-c3ccc(Br)cc3)cn12)N/N=C/c1ccc(O)cc1`, the GI50 in assay [1] is 62.7 µM; in assay [2] it was 31.8 µM; in assay [3], 23.7 µM; in assay [5], 6.27 µM. For the same molecule, the TGI was more than 100 µM in assay [1]; more than 100 µM in assay [2]; 92.3 µM in assay [3]; 23.7 µM in assay [4]; 24.3 µM in assay [5].
For `OCNCCNc1nc2ccccc2c2[nH]c3ccccc3c12`, the GI50 in assay [1] is 1.24 µM; in assay [3] it was 1.46 µM; in assay [4] it was 0.879 µM; in assay [5], 1.46 µM. Further, the TGI in assay [1] was 4.5 µM; in assay [3], 3.87 µM; in assay [4], 2.11 µM; in assay [5] it was 5.11 µM.
Regarding `O=C(Nc1ccccc1C(=O)N/N=C(\c1ccccc1)c1ccccn1)c1ccc(F)cc1`, the GI50 in assay [1] is 0.308 µM; in assay [2] it was 0.394 µM; in assay [3], 6.48 µM; in assay [4], 0.792 µM; in assay [5] it was 0.602 µM. For the same molecule, the TGI in assay [1], in assay [2], in assay [3], in assay [4] and in assay [5] was more than 100 µM each time.
`Nc1ccc2c(c1)c(N)nn2C(=O)Nc1ccc(Cc2ccccc2)cc1`: the GI50 in assay [1] is 6.92 µM; in assay [2], 5.8 µM; in assay [3], 17.3 µM; in assay [4] it was 4.33 µM; in assay [5] it was 7.36 µM. The TGI in assay [1] was determined as 26.5 µM; in assay [2] it was 22.8 µM; in assay [3] it was 43 µM; in assay [4] it was 24 µM; in assay [5] it was 23.8 µM.
As to `CC1CC2(C)CC(=O)C1C1C(=O)N(CCN3CCCCC3)C(=O)C12` (stereo not drawn), the GI50 in assay [2], in assay [3], in assay [4] and in assay [5] was more than 100 µM in each case. For the same molecule, the TGI in assay [2], in assay [3], in assay [4] and in assay [5] was more than 100 µM in each case.
Consider `Cc1cc(Cl)ccc1NS(=O)(=O)c1ccc(-c2cnc(C3CC3)o2)cc1`, for which the GI50 is 0.0619 µM in assay [1]; 0.369 µM in assay [2]; 0.275 µM in assay [3]; 0.254 µM in assay [4]; 0.0838 µM in assay [5]. Also, the TGI came to 14.7 µM in assay [1]; 42.4 µM in assay [2]; 22.2 µM in assay [3]; 13.8 µM in assay [4]; 15.5 µM in assay [5].
As to `Oc1ccc(Cl)cc1Cc1cc(Cl)ccc1O`, the GI50 was 2.97 µM in assay [1]; 2.18 µM in assay [2]; 1.91 µM in assay [3]; 3.17 µM in assay [4]; 2.76 µM in assay [5]. Besides, the TGI in assay [1] came out at 10.2 µM; in assay [2], 7.3 µM; in assay [3], 7.35 µM; in assay [4], 11.6 µM; in assay [5], 8.44 µM.
Turning to `COc1cc([N+](=O)[O-])c2ncccc2c1[N+](=O)[O-]`, the GI50 in assay [1] was 3.26 µM; in assay [2], 3.1 µM; in assay [3], 3.87 µM; in assay [4], 4.18 µM; in assay [5], 3.9 µM. Moreover, the TGI was 32.1 µM in assay [1]; 11.7 µM in assay [2]; 29.4 µM in assay [3]; 17 µM in assay [4]; 15.1 µM in assay [5].
Regarding `CC(=O)Oc1ccc2c(c1)CC[C@@H]1C2CC[C@]2(C)C(=O)NC(=O)CC12` (stereo partly drawn), the TGI in assay [1], in assay [2], in assay [3], in assay [4] and in assay [5] was more than 100 µM in each case.
Consider `CC(=O)OC1CC2C(=O)C(=O)C1(C)C2(C)C` (stereo not drawn), for which the TGI in assay [1], in assay [2], in assay [4] and in assay [5] was more than 100 µM each time.
As for `CSC1=NCC2(S1)c1ccccc1N(C(=O)OC(C)(C)C)C2N1CCCCC1` (stereo not drawn), the GI50 is more than 100 µM in assay [1], 81.8 µM in assay [3] and 34.7 µM in assay [4]. In addition, the TGI in assay [1], in assay [3] and in assay [4] was more than 100 µM throughout.
As for `CC1(C)CC[C@]2(C(N)=O)CC[C@]3(C)C(=CC[C@@H]4[C@@]5(C)C/C(=C/c6ccncc6)C(=O)C(C)(C)[C@@H]5CC[C@]43C)[C@@H]2C1`, the GI50 in assay [1] is 2.52 µM; in assay [2] it was 2.55 µM; in assay [3], 3.07 µM; in assay [4] it was 1.37 µM. Moreover, the TGI in assay [1] is 10.5 µM; in assay [2], 12.4 µM; in assay [3] it was more than 100 µM; in assay [4], 3.51 µM.
In the case of `CCN(CC)CCN(C(=O)C(C)(C)C)c1ccccc1N`, the TGI in assay [1] and in assay [4] was more than 100 µM in each case.
For `CC1OC(OC2CCC3(C=O)C4CCC5(C)C(C6=CC(=O)OC6)CCC5(O)C4CCC3(O)C2)C(O)C(O)C1O` (stereo not drawn), the TGI was more than 100 µM in assay [3], 0.0025 µM in assay [4] and 7.77e-05 µM in assay [5].
